# According to paper PMC3954902 (Journal of medicinal chemistry, 2013):
# Columns and labels:
# [1] = test system: HCV genotype 1b subgenomic replicon in Huh-5-2 cells; test: Replicon assay on Huh5-2; format: cell-based, Hepatitis C virus; details: for Replicon assay on Huh5-2 SI (ratio of CC50 to EC50): Huh-5-2 cells; for anti-HCV activity and toxicity in words: Huh-5-2 replicon and MTS
# NS5B = details: read-out: NS5B IC50 reported by Kumar et al.; literature value; cited from earlier work
# recombinant HCV NS5BCΔ21 = recombinant HCV NS5BCΔ21 (Hepatitis C virus genotype 1b, UniProt O92972); test: NS5B polymerase primer-dependent elongation assay; format: biochemical, HCV genotype 1b (HC-J4); details: for fold reduction in potency against NS5B relative to derivative 8: ratio of IC50 values vs 8
# Huh-9-13 cells = test: MTS assay and microscopic analysis on Huh 9-13 cells; format: cell-based
smiles,measurement,setting,value
"COc1cc2c(=O)c(C(=O)OCc3ccc(C)cc3)cn(Cc3ccc(C(F)(F)F)cc3F)c2cc1OC [Compound 2, reference compound]",selectivity of anti-HCV effect from dose-response curve,"[1]; Huh-5-2, data not shown",non-selective anti-HCV agent
same,IC50,NS5B,8 nM
"Cc1ccc(COC(=O)c2cn(Cc3ccc(C(F)(F)F)cc3F)c3cc(Cl)c(N)cc3c2=O)cc1 [Compound 4, 4-Methylbenzyl 6-amino-7-chloro-1-[2-fluoro-4-(trifluoromethyl)benzyl]-4-oxo-1,4-dihydro-3-quinolinecarboxylate]",Replicon assay on Huh5-2 SI (ratio of CC50 to EC50),[1],>2.5
same,anti-HCV activity and toxicity in words,[1],neither active nor toxic
"Nc1cc2c(=O)c(C(=O)OCc3ccc(Cl)cc3)cn(Cc3ccc(Cl)cc3)c2cc1Cl [Compound 5, 4-Chlorobenzyl 6-amino-7-chloro-1-(4-chlorobenzyl)-4-oxo-1,4-dihydro-3-quinolinecarboxylate]",inhibition of NS5B RdRp activity in preliminary screening,recombinant HCV NS5BCΔ21; 25 µM compound concentration,inactive
same,anti-HCV activity and toxicity in words,[1],neither active nor toxic
"CN1CCN(c2cc3c(cc2N)c(=O)c(C(=O)OCc2ccc(Cl)cc2)cn3Cc2ccc(Cl)cc2)CC1 [Compound 7, 4-Chlorobenzyl 6-amino-1-(4-chlorobenzyl)-7-(4-methyl-1-piperazinyl)-4-oxo-1,4-dihydro-3-quinolinecarboxylate]",fold higher NS5B inhibition than reference compound 2,"recombinant HCV NS5BCΔ21; head to head, same assay conditions",5 fold
"Nc1cc2c(=O)c(C(=O)OCc3ccc(Cl)cc3)cn(Cc3ccc(Cl)cc3)c2cc1N1CCN(c2ccccn2)CC1 [Compound 8, 4-Chlorobenzyl 6-amino-1-(4-chlorobenzyl)-4-oxo-7-[4-(2-pyridinyl)-1-piperazinyl]-1,4-dihydro-3-quinolinecarboxylate]",cellular morphology by microscopic analysis,Huh-9-13 cells,cell aggregation
"Nc1cc2c(=O)c(C(=O)OCc3ccc(Cl)cc3)cn(Cc3ccc(Cl)cc3)c2cc1N1CCN(c2nc3ccccc3s2)CC1 [Compound 9, 4-Chlorobenzyl 6-amino-7-[4-(1,3-benzothiazol-2-yl)-1-piperazinyl]-1-(4-chlorobenzyl)-4-oxo-1,4-dihydro-3-quinolinecarboxylate]",Replicon assay on Huh5-2 SI (ratio of CC50 to EC50),[1],>17
"Nc1cc2c(=O)c(C(=O)OCc3ccc(Cl)cc3)cn(Cc3ccc(Cl)cc3)c2cc1N1CCN(c2cccc(C(F)(F)F)c2)CC1 [Compound 10, 4-Chlorobenzyl 6-amino-1-(4-chlorobenzyl)-4-oxo-7-{4-[3-(trifluoromethyl)phenyl]-1-piperazinyl}-1,4-dihydro-3-quinolinecarboxylate]",Replicon assay on Huh5-2 SI (ratio of CC50 to EC50),[1],>6
"CCOC(=O)c1cn(Cc2ccc(Cl)cc2)c2cc(N3CCN(c4ccccn4)CC3)c(N)cc2c1=O [Compound 27, Ethyl 6-amino-1-(4-chlorobenzyl)-4-oxo-7-[4-(2-pyridinyl)-1-piperazinyl]-1,4-dihydro-3-quinolinecarboxylate]",fold reduction in potency against NS5B relative to derivative 8,recombinant HCV NS5BCΔ21,~ 45 fold
"Nc1cc2c(=O)c(C(=O)O)cn(Cc3ccc(Cl)cc3)c2cc1N1CCN(c2ccccn2)CC1 [Compound 28, 6-amino-1-(4-chlorobenzyl)-4-oxo-7-[4-(2-pyridinyl)-1-piperazinyl]-1,4-dihydro-3-quinolinecarboxylic acid]",fold reduction in potency against NS5B relative to derivative 8,recombinant HCV NS5BCΔ21,345 fold
same,Replicon assay on Huh5-2 SI (ratio of CC50 to EC50),[1],>28
